How the values were obtained:
[1] = tested on: Keap1-Nrf2/ARE signaling pathway; assay: Western blot of Keap1-Nrf2/ARE pathway related proteins in H2O2 induced SH-SY5Y nerve cell injury model; format: cell-based, human; conditions: NAC 1 mM pre-treated 1 hour, then H2O2 400 μM 24 hours, P<0.05
Method: (§1) The culture of cells. Human neuroblastoma cells SH-SY5Y (American Type Culture Collection, Manassas, VA, USA) were cultivated in an incubator at 37° C. and a volume fraction of 5% CO2. The culture medium contains DMEM/F-12, 2 mM glutamine, 100 U/ml penicillin, 100 μg/ml streptomycin, and 10% FBS. Cells were seeded into a 96 well plate at a density of 2×10^4 cells per well and subjected to proliferation until 90%.
(§2) The cells were randomly divided into four groups: blank control group, hydrogen peroxide group (Veh), Mep-S group, and NAC group (a neuroprotective drug used as a positive control). The cells of Mep-S group (1 μM) and NAC group (1 mM) were pre-treated with corresponding concentrations of drugs for 1 hour. Then, except for the blank control group which was given physiological saline, the cells of all other groups were incubated with H2O2 (400 μM) for 24 hours.
Western blot was used to detect the expression levels of neuronal apoptosis protein (Caspase3) and Keap1-Nrf2/ARE pathway related proteins (Keap1, Nrf2, HO-1, NQO-1, etc.) in each group. The bands were visualized using enhanced chemiluminescence (Pierce, Rockford, IL, USA) and quantitative analysis was performed using Image Studio Lite 5.2.

SH-SY5Y cells = assay: Annexin V/PI dual staining, apoptosis by flow cytometry in H2O2 injured SH-SY5Y cells; format: cell-based, human; conditions: NAC 1 mM pre-treated 1 hour, then H2O2 400 μM 24 hours; P<0.05
Method: as §1, §2
Annexin V/PI dual staining method was used to detect the protective effect of Mep-S on cellular oxidative damage. Cell apoptosis was measured by flow cytometry using FITC Annexin V apoptosis detection kit (BD Pharmingen, Franklin Lakes, NJ, USA). The operation was performed following the instructions.

ovarian granulosa cells = assay: Protection of primary ovarian granulosa cells against doxorubicin (DOX) cytotoxicity, CCK-8; format: cell-based, mice; conditions: DOX alone, final concentration 25 μg/mL
Method: In-vitro-Culture of granulosa cells of mice. Female ICR mice aged 21 to 23 days were euthanized by dislocation after anesthesia. After disinfecting the abdominal skin with 75% alcohol, bilateral ovaries were taken out and antral follicles were punctured under dissecting microscope to release granulosa cells into a M2 culture medium containing 20% FBS. Then the culture medium was centrifuged at 1,000 revolutions per minute for 5 minutes. Supernatant was discarded, and residue was washed three times with a culture medium, and then was placed in a 96 well plate in an alpha MEM culture medium containing 5% FBS for further culture. […]
After the granulosa cells in a 96 well plate prolificated to 70% to 80%, the culture medium was taken out, and 10 μL of the test drug (C1 (a compound represented by Formula I, m is 3, R1 is OH, and R2 is H), C2 (a compound represented by Formula I, m is 3, R1 is Cl, and R2 is H), C3 (a compound represented by Formula I, m is 3, R1 is OCH3, and R2 is H), C4 (a compound represented by Formula I, m is 3, R1 is H, and R2 is H)), 10 μL of DOX with a final concentration of 25 μg/mL, and 80 μL of fresh culture medium were sequentially added. […] The absorbance (OD) value (450 nm) of each well was measured using an enzyme-linked immunosorbent assay (ELISA) reader to calculate the survival rate of granulosa cells of mice. […]

[2] = compared with H2O2 damage group

Structure (SMILES)	phosphorylation level of Akt [1]	level of HO-1 protein [1, 2]	level of Keap 1 protein [1, 2]	level of NQO-1 protein [1, 2]	level of Nrf2 protein in the cell nucleus [1, 2]	level of Nrf2 protein in the cytoplasm [1, 2]	apoptosis rate of SH-SY5Y cells (SH-SY5Y cells)	Cell survival rate (%) (ovarian granulosa cells; 24 hours, CCK-8 (positive control group))	growth of granulosa cells (in words) (ovarian granulosa cells; p<0.01 versus negative control)
CC(=O)N[C@@H](CS)C(=O)O [NAC]	significantly restores its expression level	significantly inhibits the decrease	inhibits the increase	significantly inhibits the decrease	significantly inhibits the decrease	inhibits the increase	significantly reduces the apoptosis rate		
COc1cccc2c1C(=O)c1c(O)c3c(c(O)c1C2=O)C[C@@](O)(C(=O)CO)C[C@@H]3O[C@H]1C[C@H](N)[C@H](O)[C@H](C)O1 [DOX, doxorubicin]								61.8	significantly inhibited the growth

Reference: patent US20250345344A1, “NOVEL NRF2 ACTIVATOR AND USE THEREOF” (SHANGHAI INSTITUTE FOR BIOMEDICAL AND PHARMACEUTICAL …, priority 2022, published 2025)
